# Assay results published in BindingDB's records for doi:10.1016/j.bmcl.2004.02.106 (Merck Research Laboratories, 2004).
# “And” between values parts separate entries of the source, which are not always exact repeats. Equal entries are not always repeated.
# Target: Sphingosine 1-phosphate receptor 5 (Homo sapiens) (UniProt Q9H228)
# Assay: Inhibition of [33P]-S1P binding to human Sphingosine 1-phosphate receptor 5 expressed on CHO cell membranes
# Sphingosine 1-phosphate receptor 5 (Homo sapiens), sequence (Q9H228 whole entry, looked up): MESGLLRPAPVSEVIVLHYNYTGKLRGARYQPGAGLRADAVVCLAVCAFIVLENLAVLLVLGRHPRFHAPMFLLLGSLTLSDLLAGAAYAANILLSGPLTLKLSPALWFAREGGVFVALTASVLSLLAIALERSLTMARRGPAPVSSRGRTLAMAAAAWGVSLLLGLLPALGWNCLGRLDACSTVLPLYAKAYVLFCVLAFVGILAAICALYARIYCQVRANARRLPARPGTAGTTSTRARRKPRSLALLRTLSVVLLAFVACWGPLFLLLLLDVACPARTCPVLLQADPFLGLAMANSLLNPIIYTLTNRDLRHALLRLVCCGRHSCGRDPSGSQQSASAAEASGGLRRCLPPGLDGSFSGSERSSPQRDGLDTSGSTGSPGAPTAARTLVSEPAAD
row,IC50,Compound
1,240 nM and 76 nM,CCCCCCCCc1ccc(CCC(N)C(=O)C[PH](O)(O)O)cc1 (centres undefined)
2,4.5 nM and 33 nM,CCCCCCCCc1ccc(CC[C@@H](N)CC(=O)[PH](O)(O)O)cc1
3,27 nM and 73 nM,CCCCCCCCc1ccc(CC[C@H](N)CC(=O)[PH](O)(O)O)cc1
4,1000 nM,CCCCCCCCc1ccc(CCC(N)CCC(=O)O)cc1 (centres undefined) [4-Amino-6-(4-octyl-phenyl)-hexanoic acid]
